This note sets out measurements from patent US7767666B2, “Butyl and butynyl benzyl amine compounds” (Janssen Pharmaceutica NV, priority 2006, dated 2010).

The target in experiment [1] is T1, human H3 receptor (Homo sapiens, UniProt Q9Y5N1).
T1 construct: expressed in transfected cells
Nature of the experiment: H3 receptor binding. To be noted: cloned human H3 receptor stably expressed in SK-N-MC cells.

The target in a further experiment is T2, Rat SERT (Rattus norvegicus, UniProt P31652).
T2 construct: A rat brain without cerebellum (Zivic Laboratories, Inc.—Pittsburgh, Pa.) was homogenized; tissue Zivic Laboratories, Inc; host or cells: rat brain without cerebellum, membrane preparation
Nature of the experiment: Rat brain SERT [3H]-citalopram binding. The note with it: rat brain membranes, 0.6 nM [3H]-Citalopram, 60 min at 25° C. How it is done:
The supernatant was removed and re-centrifuged at 15,000 rpm for 30 min. […] Membranes were incubated with 0.6 nM [^3H]-Citalopram plus/minus test compounds for 60 min at 25° C. and harvested by rapid filtration over GF/C glass fiber filters (pretreated with 0.3% polyethylenimine) followed by four washes with ice-cold buffer.

Experiment [2] addresses T1, human H3 receptor. The experiment in a line: Cyclic AMP accumulation (β-galactosidase reporter). It counts as cell-based. To be noted: for pA2: SK-N-MC cells expressing human H3 receptor and reporter, histamine agonist, forskolin 5 μM, Schild regression of pEC50 values. How it is done: Sublines of SK—N-MC cells were created that expressed a reporter construct and the human H3 receptor. The reporter gene (β-galactosidase) is under the control of multiple cyclic AMP responsive elements. In 96-well plates, histamine was added directly to the cell media followed 5 min later by an addition of forskolin (5 μM final concentration). When appropriate, antagonists were added 10 min prior to agonist addition. After a 6-h incubation at 37° C., the media was aspirated and the cells washed with 200 μL of phosphate-buffered saline followed by a second aspiration. Cells were lysed with 25 μL 0.1× assay buffer (10 mM Na-phosphate, pH 8, 0.2 mM MgSO4, 0.01 mM MnCl2) and incubated at rt for 10 min. […] Color was developed using 25 μL of 1 mg/mL substrate solution (chlorophenolred β-D galactopyranoside; Roche Molecular Biochemicals, Indianapolis, Ind.).

In a further experiment the target is T3, human SERT (Homo sapiens, UniProt P31645).
T3 construct: expressed in transfected cells; host or cells: HEK293 membranes
The experiment in a line: Human SERT 3H-citalopram binding. The note with it: HEK293 membranes expressing the human SERT, rt 1 h. How it is done:
Homogenized HEK293 (Human Embryonic Kidney) membranes expressing the human SERT were incubated with ^3H-citalopram (SERT) at rt for 1 h in 50 mM Tris, 120 mM NaCl, 5 mM KCl (pH 7.4). […] The membranes were washed and the radioactivity was counted as above.

T1 sequence (Q9Y5N1 whole entry): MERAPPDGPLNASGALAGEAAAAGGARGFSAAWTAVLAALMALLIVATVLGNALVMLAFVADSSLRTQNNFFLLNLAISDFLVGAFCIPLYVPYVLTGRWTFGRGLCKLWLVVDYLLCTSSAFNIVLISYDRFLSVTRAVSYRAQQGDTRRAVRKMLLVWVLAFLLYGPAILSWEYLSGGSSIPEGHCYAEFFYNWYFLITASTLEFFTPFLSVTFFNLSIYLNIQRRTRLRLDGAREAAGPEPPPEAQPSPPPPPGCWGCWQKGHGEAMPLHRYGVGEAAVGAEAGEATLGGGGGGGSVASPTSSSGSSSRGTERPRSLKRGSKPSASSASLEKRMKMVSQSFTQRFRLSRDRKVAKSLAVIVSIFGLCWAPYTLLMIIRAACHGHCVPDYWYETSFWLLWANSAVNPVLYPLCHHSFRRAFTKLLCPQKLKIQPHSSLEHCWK
T3 sequence (P31645 whole entry): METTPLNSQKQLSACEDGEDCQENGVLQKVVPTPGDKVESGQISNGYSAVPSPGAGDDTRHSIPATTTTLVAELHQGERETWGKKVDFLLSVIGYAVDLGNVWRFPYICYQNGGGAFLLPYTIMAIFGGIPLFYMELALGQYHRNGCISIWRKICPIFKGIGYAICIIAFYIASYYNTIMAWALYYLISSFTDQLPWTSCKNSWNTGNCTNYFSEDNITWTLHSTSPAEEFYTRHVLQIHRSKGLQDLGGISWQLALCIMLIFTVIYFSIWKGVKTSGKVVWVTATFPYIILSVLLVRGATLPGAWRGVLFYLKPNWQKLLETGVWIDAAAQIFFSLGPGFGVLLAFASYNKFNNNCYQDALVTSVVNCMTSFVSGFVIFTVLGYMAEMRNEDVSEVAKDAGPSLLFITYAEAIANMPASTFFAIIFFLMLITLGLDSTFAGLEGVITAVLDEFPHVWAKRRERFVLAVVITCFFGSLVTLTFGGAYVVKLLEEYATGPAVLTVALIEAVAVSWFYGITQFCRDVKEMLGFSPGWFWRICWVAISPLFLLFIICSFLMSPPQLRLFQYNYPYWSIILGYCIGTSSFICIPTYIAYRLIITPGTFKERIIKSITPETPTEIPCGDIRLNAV
T2 sequence (P31652 whole entry): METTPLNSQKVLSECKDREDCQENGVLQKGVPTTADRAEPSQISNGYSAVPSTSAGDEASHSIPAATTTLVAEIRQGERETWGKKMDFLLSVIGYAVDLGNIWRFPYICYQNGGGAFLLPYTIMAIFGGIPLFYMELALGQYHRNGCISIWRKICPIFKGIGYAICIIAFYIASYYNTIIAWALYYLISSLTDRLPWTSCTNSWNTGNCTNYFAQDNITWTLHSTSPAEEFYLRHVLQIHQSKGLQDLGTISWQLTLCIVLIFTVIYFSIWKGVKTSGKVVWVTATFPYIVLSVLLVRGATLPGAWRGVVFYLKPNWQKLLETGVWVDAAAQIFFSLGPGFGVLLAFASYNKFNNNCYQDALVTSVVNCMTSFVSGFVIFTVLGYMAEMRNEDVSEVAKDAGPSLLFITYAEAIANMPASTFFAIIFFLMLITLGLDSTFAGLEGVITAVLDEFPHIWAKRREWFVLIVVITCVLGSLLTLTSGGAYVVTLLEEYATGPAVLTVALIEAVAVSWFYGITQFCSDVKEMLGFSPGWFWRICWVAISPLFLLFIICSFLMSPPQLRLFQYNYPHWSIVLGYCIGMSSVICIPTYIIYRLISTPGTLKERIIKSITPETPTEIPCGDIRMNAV

For the compound `CNCc1cc(C#CCCN2CCC(F)CC2)ccc1Oc1ccc(SC)cc1` [Example 11, [5-[4-(4-Fluoro-piperidin-1-yl)-but-1-ynyl]-2-(4-methylsulfanyl-phenoxy)-benzyl]-methyl-amine], the Ki at human H3 receptor [1] was found to be 6 nM; on Rat SERT, 0.6 nM; on human SERT, 0.9 nM. Also, on human H3 receptor [2], the pA2 was 8.12.
In the same order, the values of `CNCc1cc(C#CCCN2CCOCC2)ccc1Oc1cccc(F)c1` [Example 8, [2-(3-Fluoro-phenoxy)-5-(4-morpholin-4-yl-but-1-ynyl)-benzyl]-methyl-amine] are 3 nM, 10 nM, 24 nM and 8.45.
Taken in the same sequence, the figures for `CNCc1cc(C#CCCN2CCOCC2)ccc1Oc1ccc(Cl)c(C(F)(F)F)c1` [Example 27, [2-(4-Chloro-3-trifluoromethyl-phenoxy)-5-(4-morpholin-4-yl-but-1-ynyl)-benzyl]-methyl-amine] were 13 nM, 7.3 nM, 17 nM and 7.89.
As for `C(#Cc1ccc(Oc2cccnc2)c(CNC2CC2)c1)CCN1CCOCC1` [Example 23, Cyclopropyl-[5-(4-morpholin-4-yl-but-1-ynyl)-2-(pyridine-3-yloxy)-benzyl]-amine], the Ki was found to be 0.7 nM on human H3 receptor [1], 18 nM on Rat SERT and 58 nM on human SERT. Also, the Kb on human H3 receptor [2] (read-out: pA2 (converted)) was 0.251 nM.
As to `CNCc1cc(C#CCCN2CCOCC2)ccc1Oc1ccc(C(F)(F)F)cc1` [Example 7, Methyl-[5-(4-morpholin-4-yl-but-1-ynyl)-2-(4-trifluoromethyl-phenoxy)-benzyl]-amine], the Ki was 7.3 nM at human H3 receptor [1], 2 nM on Rat SERT and 2.7 nM on human SERT. In addition, the pA2 at human H3 receptor [2] is given as 7.90.
In the same order, the values of `CNCc1cc(C#CCCN(C)C2CC2)ccc1Oc1ccc(SC)cc1` [Example 16, Cyclopropyl-methyl-{4-[3-methylaminomethyl-4-(4-methylsulfanyl-phenoxy)-phenyl]-but-3-ynyl}-amine] are 6.1 nM, 1.3 nM, 1.1 nM and 9.10.
Regarding `CNCc1cc(C#CCCN2CCOCC2)ccc1Oc1ccc(F)cc1Cl` [Example 28, [2-(2-Chloro-4-fluoro-phenoxy)-5-(4-morpholin-4-yl-but-1-ynyl)-benzyl]-methyl-amine], the values for the Ki on human H3 receptor [1], on Rat SERT and on human SERT were 6 nM, 3.4 nM and 3.6 nM, respectively. For the same compound, at human H3 receptor [2], the pA2 came out at 8.78.
